Where “and” joins values, the source holds several entries; their conditions need not be identical. Equal entries are not always repeated.
How the values were obtained:
[1] = system: GnRHR-expressing LβT2 gonadotrope cell line; experiment: Focused cDNA microarray analysis (FMA) of genes regulated by GnRH in LβT2 cells; type: cell-based, mouse
Description: Cell Culture and Sample Preparation: LβT2 cells were obtained and maintained at 37° C. in 5% CO2 in humidified air in DMEM (Mediatech) containing 10% fetal bovine serum (Gemini). For experiments. 40-50×10^6 cells were seeded in 15 cm dishes. The medium was replaced 21 hours later with DMEM containing 25 mM HEPES (Mediatech) and glutamine. […] The incubation was stopped by aspirating the incubation medium and adding 10 ml of lysis buffer (4M guanidinium thiocyanate, 25 mM sodium citrate, pH 7.0, 0.5% N-lauroyl-sarcosine, and 0.1 M 2-mercaptoethanol). Total RNA was isolated according to the method of Chomczynski and Sacchi (1987) supra. Approximately 400 μg total RNA was obtained from each plate.
Microarray Development: The 956 clones were selected from an NIA 15K library (Tanaka et al. (2000) Proc. Natl. Acad. Sci. USA 97:9127-9132) or purchased from Research Genetics. The gene selection was partially based on literature searches. A large number of genes known to be induced at early time points in other experimental systems were included as well as 67 putative “housekeeping” genes. Plasmids were purified using the Qiaprep 96 Turbo Miniprep kit. Following insert amplification by PCR, products were confirmed by agarose gel electrophoresis and purified with Qiaquick 96 kit (Qiagen). The product was dried, dissolved in 18 μl H2O. 50% DMSO or 3×SSC and spotted (3 hits/feature, 3 features/gene) with a GMS 417 Arrayer (Affymetrix) on CMT-GAPS coated glass slides (Corning). DNA was fixed either by incubating the slide 3.5 hours at 40° C. followed by 10 min at 100° C. or for 2 hours at 85° C. or by UV crosslinking with 90 mJ (Stratalinker, Stratagene). Arrays were stored light-protected at room temperature until use. A Cy5-labeled oligomer complementary to one of the amplification primers was designed to test printing and attachment efficiency (5′-CGTTTTACAACGTCGTGACTGGG-3′) (SEQ ID NO:1). 12% of the cDNAs on the array were confirmed by sequencing, including randomly selected clones on each 96-well plate and all genes that were identified as regulated.
RNA Labeling and Hybridization. 20 μg of total RNA from each sample was labeled with either Cy3 or Cy5 using the Atlas indirect labeling kit (Clontech) as indicated by the manufacturer. Following array prehybridization in 6×SSC, 0.5% SDS, 1% BSA at 42° C. for 45 min, the probe was denatured and hybridized in 24 μl 50% formamid, 6×SSC, 0.5% SDS. 5×Denhardt's with 2.4 μg salmon sperm DNA, 10 μg poly dA at 42° C. (room temperature for test oligomer hybridization) for 16 hours. Following 10 min washes in 0.1×SSC, 0.1% SDS, and twice in 0.1×SSC the slide was scanned using the GMS 418 Scanner (Affymetrix).
Data Analysis. […] The median background-subtracted feature intensity was utilized for further analysis. Overall differences in the signal intensity of the two wavelengths measured on each slide (λ=532 nm and λ=635 nm) were corrected using the locally linear robust scatterplot smoother implemented in the loess function in S Plus Professional (Insightful Corporation). Predictors were generated using a symmetric distribution, span=0.75 (Venables and Ripley (1999) Modern Applied Statistics with S-Plus. Spring, N.Y. Measurement precision was estimated by determining the median coefficient of variation within slides for each gene:
[formula] Genes were selected according to the following algorithm (i) ±fold-change of >1.3; (ii) |t|>3; (iii) signal intensity in at least one channel >1% of the median signal intensity value; (iv) criteria i-iii observed in at least 2 of 3 experiments.
Microarray Identification of Genes Activated by GnRH is LβT2 Cells. The response to GnRH was studied in the GnRHR-expressing LβT2 gonadotrope cell line (Turgeon et al. (1996) Mol Endocrinol. 10:439-450). Three separate experiments comparing the effects of 1 hour exposure to GnRH or vehicle were performed. […]

[2] = system: gonadotrope cell line LβT2 cells; experiment: Time course of IRC response to GnRH in presence and absence of cyclohexamide (CHX); type: cell-based, mouse; conditions: 100 nM GnRH, protein synthesis inhibitor cyclohexamide
Description: The cells were treated with 100 nM GnRH in the presence and absence of the inhibitor of protein synthesis, cyclohexamide (CHX). […] No other proteins need to be synthesized to induce activation of this IRC. The use of a time course such as that illustrated allow selection of the optimum time point or time points after stimulation at which to assay the IRCs to provide the most complete map of the cell global signal transduction response.
The proper time point or time points after exposure can be determined experimentally in any system by performing a time course of the gene response. If a single time point after exposure is assayed, it is best to select a time at which most IRCs are continuing to show an increase in the level of expression. This is usually between 30 minutes and 1 hour.

[3] = 100 nM GnRH vs vehicle, 1 hour, LβT2 cells
[4] = two clones spotted in different locations on the arrays, 100 nM GnRH, 1 hour

Substance: gonadotropin releasing hormone [GnRH]
- 1κB fold-change, Microarray (n = 3) [1, 3]: 1.7 ± 0.2 fold
- Egr1 fold-change, Microarray (n = 3) [1, 3]: 12.9 ± 3.8 fold
- Egr2 fold-change, Microarray (n = 3) [1, 3]: 1.5 ± 0.2 fold
- Gem fold-change, Microarray (n = 3) [1, 3]: 1.7 ± 0.2 fold
- HSP30 fold-change, Microarray (n = 3) [1, 3]: 1.3 ± 0.2 fold
- Klf4 fold-change, Microarray (n = 3) [1, 3]: 1.7 ± 0.3 fold
- Klf-like EST fold-change, Microarray (n = 3) [1, 3]: 2.3 ± 0.3 fold
- LRG21 fold-change, Microarray (n = 3) [1, 3]: 31.2 ± 16.6 fold
- MKP1/3CH134 fold-change, Microarray (n = 3) [1, 3]: 1.4 ± 0.1 fold
- NMDMC fold-change, Microarray (n = 3) [1, 3]: 1.4 ± 0.3 fold
- Nr4a1/nur77 fold-change, Microarray (n = 3) [1, 3]: 5.9 ± 1.5 fold
- Nrf2 fold-change, Microarray (n = 3) [1, 3]: 1.3 ± 0.2 fold
- PRL1 fold-change, Microarray (n = 3) [1, 3]: 2.0 ± 0.4 fold
- Period1 fold-change, Microarray (n = 3) [1, 3]: 2.1 ± 0.1 fold
- Rgs2 fold-change, Microarray (n = 3) [1, 3]: 4.0 ± 1.3 fold
- TSC22 fold-change, Microarray (n = 3) [1, 3]: 3.4 ± 0.4 fold
- c-fos fold-change, Microarray (n = 3) [1, 3]: 12.5 ± 4.0 fold
- c-jun fold-change, Microarray (n = 3) [1, 3]: 3.8 ± 0.6 fold
- gly96 fold-change, Microarray (n = 3) [1, 3]: 1.7 ± 0.6 fold
- ler2/Pip92 fold-change, Microarray (n = 3) [1, 3]: 5.2 ± 1.2 fold
- transgelin fold-change, Microarray (n = 3) [1, 3]: 1.4 ± 0.1 fold
- β-actin fold-change, Microarray (n = 3) [1, 3]: 2.0 ± 0.5 fold
- γ-actin fold-change, Microarray (n = 3) [1, 3]: 2.7 ± 0.3 fold
- Time course of induced genes, FMA ([1]; cells exposed to GnRH for 3 hours and 6 hours): nearly all of the induced genes return to baseline levels of expression by 3 hours
- Nrf2 degree of change on microarray, two different clones [1, 4]: 1.3±0.2 and 1.3±0.1
- PRL1 degree of change on microarray, two different clones [1, 4]: 2.0±0.4 and 1.5±0.4
- Rgs2 degree of change on microarray, two different clones [1, 4]: 4.0±1.3 and 2.9±1.2
- TSC22 degree of change on microarray, two different clones [1, 4]: 3.4±0.4 and 3.3±0.6
- levels of gly96 in the presence of CHX [2]: increase

— patent publication US7723023B2, “Use of intrinsic reporters of cell signaling for high content drug profiling and toxicity screening” (Mount Sinai School of Medicine, priority 2001, dated 2010)
